Measured values: patent publication US20250114337A1, “METHODS FOR VASCULAR REGENERATION AND WOUND TREATMENT” (THE METHODIST HOSPITAL, priority 2022, published 2025)
Entries after “also recorded” stand apart in the source; their conditions may differ.

What was measured:
BJ fibroblasts = experiment: in vitro transdifferentiation of fibroblasts to induced endothelial cells (iECs); assay type: cell-based, human; settings: fibroblasts exposed during transdifferentiation protocol
Excerpt: Innate immune activation is required for transdifferentiation. […] 131 (3): p. 300-9). iECs generated from this protocol manifest high fidelity for endothelial lineage. They incorporate acetylated LDL (FIG. 2B), form tubular networks (FIG. 2C), have similar transcriptomes as genuine endothelial cells, and increase capillary density and perfusion when injected into the ischemic hindlimb of the mouse (FIG. 2D) (Sayed, N., et al., Circulation, 2015. 131 (3): p. 300-9). This protocol can be utilized to study the role of O-GlcNAcylation in transdifferentiation in vitro.
O-GlcNAcylation is required for in vitro transdifferentiation. To define if the elevation of O-GlcNAcylation is required for transdifferentiation, fibroblasts were exposed to Thiamet G (TMG) (an OGA inhibitor that enhances O-GlcNAcylation) or DON (an inhibitor for GFAT that acts upstream in the hexosamine biosynthesis pathway and reduces O-GlcNAcylation). The number of iECs generated during transdifferentiation is increased when fibroblasts are exposed to TMG and decreased when exposed to DON (FIG. 5A). […] The role of O-GlcNAcylation of specific epigenetic regulars e.g., HIRA during transdifferentiation can also be addressed.
To define if the elevation of O-GlcNAcylation is required for transdifferentiation, inhibitors of O-GlcNAcylation including OSMI (an inhibitor for OGT) and DON (an inhibitor for GFAT that acts upstream in the hexosamine biosynthesis pathway and reduces O-GlcNAcylation) or an activator of O-GlcNAcylation. Thiamet G (TMG) (an OGA inhibitor that enhances O-GlcNAcylation), were delivered to BJ fibroblasts undergoing transdifferentiation. The number of CD31 expressing iECs generated during transdifferentiation decreases when exposed to OSMI or DON and increases when fibroblasts are exposed to TMG (FIG. 17B). Then OGT or OGA were knocked down using shRNA in the BJ fibroblasts (FIG. 17C) and performed transdifferentiation protocol in vitro.

[1] = test system: ischemic hindlimb mice model; experiment: hindlimb ischemia recovery in WT C57BL/6 mice, laser doppler imaging; assay type: in vivo, mouse; settings: OSMI4 10 mg/kg 0, 1, 2 days post-surgery; younger mice (8 to 12 weeks)
Procedure: O-GlcNAcylation manipulations regulated recovery from tissue ischemia. To determine if the change in O-GlcNAcylation can modulate limb ischemia recovery, and contributes to vascular recovery, WT C57BL/6 mice were treated with the O-GlcNAcylation inhibitor, OSMI4, or O-GlcNAcylation enhancer, TMG 0, 1, 2 days post-surgery. Age is an important factor that determines recovery, and younger mice are known to have a more robust angiogenic response as compared with older mice. Accordingly, younger mice (between 8 to 12 weeks) were used to assess the impairment of angiogenesis by OSMI (which reduces O-GlcNAcylation). Older mice (around 20 weeks) were used to assess the enhancement of angiogenesis by TMG (which increases O-GlcNAcylation). […] It will be determined whether this beneficial effect is mediated by increased DNA accessibility and enhanced transdifferentiation.
To determine if O-GlcNAcylation manipulations can modulate the overall effect of vascular recovery from limb ischemia. WT C57BL/6 mice were treated with the O-GlcNAcylation inhibitor. OSMI4 (10 mg/kg), or O-GlcNAcylation enhancer. TMG (10 mg/kg) 0, 1, 2 days post-surgery (FIG. 19A).

H3.3 deposition = experiment: H3.3-SNAP tagging, quench-chase-pulse TMR-Star labeling; assay type: cell-based; settings: Poly I:C + OSMI
Excerpt: To identify the role of O-GlcNAcylation of histone variant h3.3 chaperone protein, HIRA, on transdifferentiation. The effects of O-GlcNAcylation on proteins that may be involved in the epigenetic regulation of transdifferentiation can be assessed. Nucleosome turnover is known to be tightly interrelated with DNA accessibility, and histone variant h3.3 is a hallmark of regulatory regions in the mammalian genome and is required to establish open chromatins. HIRA is the chaperone for h3.3, it forms a complex with other subunits, including ASF1. UBN, and CABIN, and is responsible for h3.3 deposition on the chromatin. OGT interacts with and O-GlcNAcylates HIRA, both of which are critical for the formation of the HIRA-h3.3 complex and h3.3 deposition and its dependent gene activation. […] The role of HIRA in transdifferentiation with fibroblasts that have HIRA knocked down or overexpressed can be determined. […] Thereafter, the de novo deposited SNAP-h3.3 will be pulse-labeled with the TMR-Star, which is a readily detectable and quantifiable red-fluorescent substrate. […]
To test whether innate immune activation enhances the H3.3 deposition in the chromatin, the H3.3-SNAP tagging system was generated where the newly synthesized H3.3 will be detected by fluorescent TMR-Star labeling with quench-chase-pulse strategy.

SMILES: CCOC(=O)CN(Cc1cccs1)C(=O)[C@H](NS(=O)(=O)c1cc2ccc(=O)[nH]c2cc1Cl)c1ccccc1OC [OSMI]
- iEC yield (number of CD31 expressing iECs generated during transdifferentiation) (BJ fibroblasts): decreases; also recorded: impair
- recovery of blood flow post femoral artery ligation (revascularization) [1]: impaired recovery; also recorded: impairs
- Poly I:C-enhanced H3.3 deposition (H3.3 deposition): impaired
